Values quoted from earlier work as cited in patent publication US20060235005A1, “Use of phosphodiesterase 5 (PDE5) inhibitors in the treatment of schizophrenia” (Oak Labs, Corp., priority 2005, published 2006).
Like-named read-outs stand apart in the source and are kept apart here.

What was measured:
anesthetized dogs = conditions: intravenous 1-300 μg kg-1, anesthetized dogs
rats [1] = conditions: oral 0.3-1.0 mg kg-1, rats
[2] = single oral dose of 10, 20 and 40 mg
schizophrenia patients = conditions: 8-week trial
[3] = test system: patients with schizophrenia; conditions: compared with haloperidol
healthy young men = conditions: 100 mg
[4] = test system: male schizophrenia patients
[5] = test system: middle cerebral artery occlusion; conditions: 2-5 mg/kg daily for seven days, vs vehicle
rats [6] = test system: rats
rats [7] = conditions: 3 mg/kg and 10 mg/kg p.o., at 24 hours
mice [8] = conditions: 3 mg/kg, at 48 hours
[9] = test system: men with cardiovascular disease
mice [10] = conditions: 2, 4, & 8 mg/kg
cortical cGMP levels = conditions: subchronic administration, rats
hyperammonemic rats = conditions: chronic oral treatment for 28 days
[11] = test system: women affected by arousal disorders
healthy subjects = conditions: single 20-mg dose
[12] = test system: men with erectile dysfunction; conditions: phase III, including patients with cardiovascular diseases, vs placebo
[13] = in vivo

## CCCOc1ccc(S(=O)(=O)NCCC2CCCN2C)cc1-c1nc2c(CCC)nn(C)c2c(=O)[nH]1 (centres unmarked) [DA-8159]
Anesthetized dogs
  intracavernosal pressure: potentiated an increase in intracavernosal pressure in a dose-related manner
Rats [1]
  erectogenic activity: erectogenic activity

## CCCc1nc(C)c2c(=O)[nH]c(-c3cc(S(=O)(=O)N4CCN(CC)CC4)ccc3OCC)nn12 [vardenafil]
[2]
  Tmax: 0.7 to 0.9 h

## N[C@@H]1CONC1=O [D-cycloserine]
Animal models; after two weeks of daily dosing
  tolerance for memory effects: tolerance for memory effects develops
Animal models; single dose administration
  learning and memory: improves learning and memory
Schizophrenia patients
  cognitive deficits: failed to improve cognitive deficits

## Cc1nc2n(c(=O)c1CCN1CCC(c3noc4cc(F)ccc34)CC1)CCCC2 [risperidone]
[3]
  reduction in relapse rate: 43%

## CCCc1nn(C)c2c(=O)[nH]c(-c3cc(S(=O)(=O)N4CCN(C)CC4)ccc3OCC)nc12 [sildenafil]
Healthy young men
  actual performance (attention / recognition): did not significantly improve
  event-related brain potentials (ERPs) patterns: significantly affected
[4]
  safety and efficacy for erectile dysfunction: safe and effective
[5]
  functional recovery (foot fault test and adhesive removal test): significantly greater functional recovery
[5]; bromodeoxyuridine labeling
  cellular proliferation in the subventricular zone and dentate gyrus: greater cellular proliferation
Rats [6]; 10 mg/kg
  effect on behavioral effects of dopamine agonists: antagonized behavioral effects
Rats [6]; single dose 1 mg/kg
  effect on behavioral effects of dopamine agonists: enhanced behavioral effects
Rats [7]
  retention of object recognition task: significantly improved retention
Mice [8]
  retention of passive avoidance task: improved retention
[9]; men with ischemic heart disease
  men with improved erectile function: up to 70%
[9]; patients not taking organic nitrates, ACE inhibitors, adrenoceptor blockers, calcium channel blockers, diuretics
  synergistic effect on blood pressure with antihypertensive agents: does not have a synergistic effect on blood pressure
Mice [10]
  acquisition of maze learning: dose-dependently improved acquisition
In vivo
  terminal half-life: 3 to 5 h
Oral administration
  absolute bioavailability: 40%
oral, fasting state
  time to peak plasma concentration (Tmax): 0.5 to 2 h
Cortical cGMP levels
  cortical cGMP levels: increase cortical cGMP levels
Hyperammonemic rats
  cGMP levels in brains: normalized cGMP levels
  performance on learning tasks: restored performance on learning tasks
[11]
  sexual performance: improve sexual performance

## CN1CC(=O)N2[C@H](c3ccc4c(c3)OCO4)c3[nH]c4ccccc4c3C[C@@H]2C1=O [tadalafil]
Healthy subjects
  change in heart rate, standing systolic or diastolic blood pressure: no significant change
[12]
  incidence of adverse events: no different from that in placebo-treated patients
[13]
  maximum Tmax: 2 h
